Earlier results in patent publication US9060950B2, “Emetic embedded capsule” (Paul H. Rosenberg, Proximate Concepts, LLC., priority 2005, dated 2015).
Structures can show the parent of a compound that is named as a salt.

Columns and labels:
[1] = not given; remark: listed apart in the source

**Q.** What does the source list for `CC(=O)Nc1ccc(O)cc1` [acetaminophen, Acetaminophen]?
**A.** amount ingested following which hepatic toxicity may occur (in vivo): 7.5 grams; amount ingested following which fatalities may occur (ingestion): 15 grams

**Q.** For `CNCCC(Oc1ccc(C(F)(F)F)cc1)c1ccccc1` (centres unmarked) [fluoxetine hydrochloride, Fluoxetine hydrochloride], which “ingested amount reported to have caused death” value (ingestion) is on record?
**A.** The value was 520 mg.

**Q.** For `O.O.O.O.O.O.O.O=S(=O)([O-])[O-].[Zn+2]` [Zinc sulfate heptahydrate], which “amount ingested that causes emesis” value [1] is on record?
**A.** The value was 0.6 grams.

**Q.** For `Cc1nnc2n1-c1ccc(Cl)cc1C(c1ccccc1Cl)=NC2` [Triazolm], which “amount ingested after which manifestations of overdose may occur” value (ingestion) is on record?
**A.** The value was 2 mg.
